Measurements taken from patent publication US11154589B2, “Antimicrobial composition combinations comprising star shaped peptide polymers” (The University of Melbourne, priority 2016, dated 2021).
Several values for one entry are separate records, joined by “and”; a condition that tells them apart may be missing. Equal entries are not always repeated. Marks after values point to notes of the source that are not given here.

Assays:
[1] = system: Acinetobacter baumannii (A. baumannii, ATCC 19606); test: MBC determination (in vitro antimicrobial experiment, CFU counting); format: cell-based; details: compound alone; A. baumannii (wild-type)
Method: (§1) Freeze-dried cultures of Escherichia coli (E. coli, ATCC 25922), Klebsiella pneumoniae (K. pneumoniae, ATCC 13883), Pseudomonas aeruginosa (P. aeruginosa, ATCC 47085), Acinetobacter baumannii (A. baumannii, ATCC 19606), colistin and multidrug-resistant (CMDR) A. baumannii (FADDI-AB156), and CMDR P. aeruginosa (FADDI-PA067) were grown aerobically and maintained by passage at ambient temperature on horse blood agar (10% v/v defibrinated horse blood, 4.4% w/v Oxoid Blood Agar Base No. 2). Overnight cultures were made from transferring a colony (ca. half a loop) from the agar plates to culture tubes containing sterilized Luria-Bertani broth (LB, 1% w/v Bacto™ Tryptone, 1% w/v NaCl, 0.5% w/v Oxoid Yeast Extract) (20 mL). Bacterial cultures were incubated overnight at 37° C. with aeration and without agitation, with the exception of the two P. aeruginosa strains (ATCC 47085 and FADDI-PA067) which were cultured at 37° C. with aeration and agitation (150 rpm). On the next day, for E. coli, K. pneumonia, P. aeruginosa (ATCC 47085), and CMDR P. aeruginosa (FADDI-PA067), small aliquots (i.e., 0.5-3 mL) were taken from the culture tubes, further diluted with LB (20 mL), and incubated for 3-4 h at 37° C. with aeration before use. All bacterial cultures were cultured without agitation, with the exception of P. aeruginosa ATCC 47085 and FADDI-PA067 which were cultured with shaking at 150 rpm. For A. baumannii, an aliquot of 0.5 mL was taken from the overnight culture tube, further diluted with LB (200 mL), and incubated overnight at 37° C. with aeration before use.
(§2) The 96-well plate was then incubated at 37° C. for 1.5 or 3 h. For each well, microbial solution was diluted with saline (0.9% NaCl solution) using an appropriate dilution factor and placed on a LB agar plate (LB broth containing 15 g/L Oxoid Blood Agar Base No. 2). For E. coli, K. pneumoniae, and A. Baumannii (ATCC 19606 and FADDI-AB156), the agar plates were incubated overnight at room temperature, and then at 37° C. with aeration for 2 h. For P. Aeruginosa (ATCC 47085 and FADDI-PA067), the agar plates were incubated at 37° C. with aeration. The number of colony-forming units (CFU) was counted and expressed as CFU/mL. Positive controls consisting of cells without any treatment were used. […] A minimum of two independent experiments (biological replicates) of the assay were conducted and three technical replicates were used in each experiment. Data is expressed as mean±standard deviation (SD) and analysed using student's t-test.

[2] = system: Escherichia coli (E. coli, ATCC 25922); test: as above; format: cell-based; details: compound alone
Method: as §1, §2

[3] = system: Klebsiella pneumoniae (K. pneumoniae, ATCC 13883); test: as above; format: cell-based; details: compound alone
Method: as §1, §2

[4] = system: Pseudomonas aeruginosa (P. aeruginosa, ATCC 47085); test: as above; format: cell-based; details: compound alone; P. aeruginosa (wild-type)
Method: as §1, §2

[5] = system: CMDR P. aeruginosa (FADDI-PA067); test: as above; format: cell-based, Pseudomonas aeruginosa; details: compound alone
Method: as §1, §2

[6] = system: CMDR A. baumannii (FADDI-AB156); test: as above; format: cell-based, Acinetobacter baumannii; details: compound alone
Method: as §1, §2

[7] = system: Acinetobacter baumannii (A. baumannii, ATCC 19606); test: S16-antibiotic co-administration, synergy by Bliss Independence and HSA models; format: cell-based
Method: as §2
(§3) The Bliss Independence and HSA models were used to calculate drug synergism. […] Biotechnol. 31, 160-165 (2013). With the Bliss Independence model, synergism was calculated using the formula, BICAB=A+B−AB (1), where A and B are the effects of the two drugs in isolation and BICAB is the combined effect of the two drugs as predicted by the Bliss Independence model. […] In the HSA model, if CAB is greater than the greater of A and B, CAB>max(A, B), synergy is observed. The quantitative effect of the compounds when administered alone (i.e., A and B) or in combination (i.e., CAB) was defined as the fractional reduction of the population, R=1−CFUt/CFU0, where CFUt is the CFU/mL measured after treatment, and CFU0 is the CFU/mL measured before treatment.

[8] = system: Escherichia coli (E. coli, ATCC 25922); test: as above; format: cell-based
Method: as §2, §3

[9] = system: Klebsiella pneumoniae (K. pneumoniae, ATCC 13883); test: as above; format: cell-based
Method: as §2, §3

[10] = system: Pseudomonas aeruginosa (P. aeruginosa, ATCC 47085); test: as above; format: cell-based
Method: as §2, §3

[11] = system: CMDR P. aeruginosa (FADDI-PA067); test: as above; format: cell-based, Pseudomonas aeruginosa
Method: as §2, §3

[12] = system: CMDR A. baumannii (FADDI-AB156); test: as above; format: cell-based, Acinetobacter baumannii
Method: as §2, §3

[13] = system: rat hepatoma (H4IIE) cells; test: Apoptosis/necrosis assay (mammalian cell viability); details: single agent at a dose equivalent to its MBC (against CMDR A. baumannii); 90 min incubation
Method: Rat hepatoma cells (H4IIE) were cultivated in DMEM medium (supplemented with 10% FBS, 1× GlutaMAX™, and 1× penicillin-streptomycin) in a humidified atmosphere containing 5% CO2 at 37° C. Cells were seeded in a T75 flask (ca. 3×10^6 cells/ml) and passaged twice a week prior to performing the subsequent cell viability studies.
Adherent H4IIE cells (obtained from the ATCC, and throughout the course of the study cells were checked for mycoplasma contamination using Mycoplasma stain kit, Myc1, Sigma) were grown to 80% confluence and trypsinised prior to assay. H4IIE cells were chosen for this study as they are standard cell lines used in toxicity studies. Cells were diluted 1:2 with ‘complete’ DMEM and seeded in a 24-well plate (1 mL per well). The cells were incubated at 37° C. in 5% CO2 for 24 h until ca. 95% confluence. The medium was removed. […] The cells were then harvested and all well contents were transferred to round-bottomed polypropylene tubes (5 mL). The cells were washed with cold DPBS, then stained with YO-PRO®-1 and PI (0.2 mL from a stock solution, whereby both dyes were diluted 1:1000 in cold DPBS, per well), and incubated on ice for 20 to 30 min. The cells were analyzed by flow cytometry (Cytomics FC 500 MPL System). Standard compensation was performed using single-colour stained cells. Negative controls using untreated cells were included. […]

[14] = S16 and antibiotic co-administered, each at MBC50, 3 h
[15] = antibiotic in combination with S16, 3 h, Bliss Independence model
[16] = antibiotic in combination with S16, 3 h, Highest Single Agent model
[17] = co-administered S16 (at MBC50) and antibiotic, antibiotic concentration giving at least 2-log reduction in CFU/mL, 3 h

## O=[N+]([O-])[O-].[Ag+] [Ag^+, silver nitrate]
[1]
  MBC: 8.2 µM
[2]
  MBC: 3.5 µM
[3]
  MBC: 10.6 µM
[4]
  MBC: 1.2 µM
[5]
  MBC: 38.3 µM
[6]
  MBC: 10.6 µM
[7]; A. baumannii wild-type, 3 h time point
  Interaction with S16 as evaluated by the Bliss Independence and HSA models (in words): synergize
[7]; A. baumannii wild-type, all compounds at MBC50, t=3 h
  Antimicrobial activity on co-administration with S16 compared to compounds alone (log change in CFU/mL): significantly enhanced antimicrobial activity
[7]; A. baumannii, S16 and antibiotic co-administered, each at MBC50, 3 h
  MBC in combination: 4.1 µM
[7]; antibiotic in combination with S16, A. baumannii, 3 h, Bliss Independence model
  Synergistic? (Yes/No) Bliss*: Yes
[7]; antibiotic in combination with S16, A. baumannii, 3 h, Highest Single Agent model
  Synergistic? (Yes/No) HAS*: Yes
[8]; 3 h time point
  Interaction with S16 as evaluated by the Bliss Independence and HSA models (in words): synergize
[8]; [14]
  MBC in combination: 1.8 µM
[8]; all compounds at MBC50, t=3 h
  Antimicrobial activity on co-administration with S16 compared to compounds alone (log change in CFU/mL): significantly enhanced antimicrobial activity
[8]; [15]
  Synergistic? (Yes/No) Bliss*: Yes
[8]; [16]
  Synergistic? (Yes/No) HAS*: Yes
[9]; 3 h time point
  Interaction with S16 as evaluated by the Bliss Independence and HSA models (in words): synergize
[9]; [14]
  MBC in combination: 5.3 µM
[9]; all compounds at MBC50, t=3 h
  Antimicrobial activity on co-administration with S16 compared to compounds alone (log change in CFU/mL): significantly enhanced antimicrobial activity
[9]; [15]
  Synergistic? (Yes/No) Bliss*: Yes
[9]; [16]
  Synergistic? (Yes/No) HAS*: Yes
[10]; P. aeruginosa wild-type, 3 h time point
  Interaction with S16 as evaluated by the Bliss Independence and HSA models (in words): synergize
[10]; P. aeruginosa wild-type, all compounds at MBC50, t=3 h
  Antimicrobial activity on co-administration with S16 compared to compounds alone (log change in CFU/mL): significantly enhanced antimicrobial activity
[10]; P. aeruginosa, S16 and antibiotic co-administered, each at MBC50, 3 h
  MBC in combination: 0.5 µM
[10]; antibiotic in combination with S16, P. aeruginosa, 3 h, Bliss Independence model
  Synergistic? (Yes/No) Bliss*: Yes
[10]; antibiotic in combination with S16, P. aeruginosa, 3 h, Highest Single Agent model
  Synergistic? (Yes/No) HAS*: Yes
[11]; 3 h time point
  Interaction with S16 as evaluated by the Bliss Independence and HSA models (in words): synergize
[11]; MBCeff with S16 versus MBC alone
  Fold reduction of MBC: 6.5 fold
[11]; [14]
  MBC in combination: 11.8 µM
[11]; all compounds at MBC50, t=3 h
  Antimicrobial activity on co-administration with S16 compared to compounds alone (log change in CFU/mL): Enhanced antimicrobial activity
[11]; [15]
  Synergistic? (Yes/No) Bliss*: Yes
[11]; [16]
  Synergistic? (Yes/No) HAS*: Yes
[11]; [17]
  MBC in combination, MBCeff: 5.9^a μM
[12]; 3 h time point
  Interaction with S16 as evaluated by the Bliss Independence and HSA models (in words): synergize
[12]; MBCeff in combination versus MBC alone
  Fold reduction of MBC: 3.7 fold
[12]; [14]
  MBC in combination: 2.9 µM
[12]; all compounds at MBC50, t=3 h
  Antimicrobial activity on co-administration with S16 compared to compounds alone (log change in CFU/mL): Enhanced antimicrobial activity
[12]; [15]
  Synergistic? (Yes/No) Bliss*: Yes
[12]; [16]
  Synergistic? (Yes/No) HAS*: Yes
[12]; [17]
  MBC in combination, MBCeff: 2.9 μM and 2.9^a μM
[13]
  H4IIE cell viability reduced by, compared to the untreated control: 33%
